The structures appear in SMILES notation.

The test concerns light responsive excitatory opsin protein ChR2 delivered virally via AAV and expressed in the sensory nerve of a mouse. The test is described as follows: Light-responsiveness over time after AAV delivery of ChR2 to the sensory nerve, immunosuppressant paradigms versus saline (FIG. 2A-2I). It counts as in vivo. As to conditions: drug paradigm and schedule as in FIG. 1; light approx. 450 nm. From the text:
Referring to FIG. 1, various drug groupings are listed (2) which have been known to modulate the immune system, including cyclosporine (“Cyc”), cyclosporine+mycophenolate mofetil (“MMF”), dexamethasone, rapamycin in various dosage configurations, rapamycin+dexamethasone+FK506 (also known as “tacrolimus”; an immunosuppressive drug used mainly after organ transplant to lower rejection risk), and metformin (a medication utilized in treating diabetes and polycystic ovary syndrome which also has been inculcated in immune suppression). Each of these listed drugs has previously been approved by the U.S. F.D.A. for different indications, and the depicted drug schedules associated with each grouping feature dosing and scheduling information that previously has been published in different treatment paradigms, such as for cardiovascular or transplant rejection scenarios.
Thus, referring again to the table (2) of FIG. 1, for cyclosporine, a subcutaneous (or “subQ” or “SQ”) regime is listed, wherein cyclosporine is injected subcutaneously for one week prior to injection of genetic material, and then every two days after, as is a cyclosporine+MMF combination (noted as “Cyc+MMF”) which has been used with success, for example, in clinical trials with adeno associated virus (“AAV”) gene therapies; the term “I.P.” or “i.p.” refers to intraperitoneal injection. […]

Regarding `CN(C)C(=N)N=C(N)N` [metformin], the “effect on proportion of animals still exhibiting light-responsiveness versus saline” value is given as “does not seem to have a significant impact”.

Values taken from patent US20190275169A1, “TARGETED IMMUNOSUPPRESSION FOR OPTOGENETIC INTERVENTION” (Circuit Therapeutics, Inc., priority 2018, published 2019).
